Measurements reported in US20080114047A1 (priority 2003, published 2008).
“And” between values parts separate entries of the source, which are not always exact repeats. Equal values may be shown once. Read-outs that look alike come from different tables or passages of the source.

Columns and labels:
[1] = in vitro
[2] = tested on: Mycobacterium tuberculosis; experiment: Compounds tested against Mycobacterium tuberculosis (MIC90); assay type: cell-based; conditions: read-out: M. tb. MIC90
[3] = tested on: Candida albicans; experiment: Anti-fungal data: Candida albicans; assay type: cell-based
[4] = tested on: J774 macrophages; experiment: Toxicity against J774 macrophages (IC50); assay type: cell-based; conditions: Mus musculus, Tables I-III, V
[5] = tested on: Aspergillus fumigatus; experiment: Anti-fungal data: Aspergillus fumigatus; assay type: cell-based
[6] = tested on: Trypanosoma brucei rhodesiense; experiment: Anti-protozoan data: T.b.r. IC50; assay type: cell-based; conditions: Tables VI(a), VI(c), read-out: T.b.r. IC50
[7] = tested on: Trypanosoma cruzi; experiment: Anti-protozoan data: T. cruzi IC50; assay type: cell-based; conditions: Tables VI(a), VI(c), read-out: T. cruzi IC50
[8] = tested on: Plasmodium falciparum; experiment: Anti-protozoan data: P. falcip. IC50; assay type: cell-based; conditions: Tables VI(a), VI(c), read-out: P. falcip. IC50
[9] = tested on: DNA; experiment: DNA binding ΔTm; conditions: Tables VI(a), VI(c)
[10] = tested on: L. donovani axenic amastigotes; experiment: In vitro anti-leishmania activity (IC50 vs. L. donovani axenic amastigotes); assay type: cell-based; conditions: for IC50: Leishmania donovani
[11] = tested on: Cryptococcus neoformans; experiment: Anti-fungal data: Cryptococcus neoformans; assay type: cell-based

For `Cl.Cl.N=C(N)c1ccc2oc(CCc3cc4cc(C(=N)N)ccc4o3)cc2c1` [Compound 8, 2-(2-(5-Amidinobenzofuran-2-yl)ethyl)benzofuran-5-carboxamidine dihydrochloride], the IC50 [1] was 21.5 µM, the MIC90 [2] was 5.15 µg/mL and 11.6 µM and the MFC ([3]; strain A39) was 100 µg/mL. For the same molecule, the MIC80 ([3]; strain A39) was 100 µg/mL, the MIC ([3]; strain A39, read-out: Candida albicans (A39) MIC100) was 100 µg/mL and the IC50 [4] was 15 ± 1 µM. The MIC80 ([5]; strain DUMC 168.95) was over 100 µg/mL, the MIC ([5]; strain DUMC 168.95, read-out: Aspergillus. Fumigatus (DUMC 168.95) MIC100) was over 100 µg/mL and the IC50 [6] was 0.0079 µM. The IC50 [7] was 12.3 µM, the IC50 [8] was 0.0025 µM and the “DNA binding Δ Tm” value [9] was 6.1. The “selectivity for axenic amastigotes over J774 macrophages (fold more active against the parasites compared to the mammalian host cells)” value ([10]; L. donovani vs. J774 macrophages) was 14 fold, the IC50 ([10]; Tables VI(a), VI(c), read-out: Leishmania donovani IC50) was 1.06 ± 0.18 µM and the IC50 ([10]; axenic amastigotes, Tables I-V, read-out: IC50 vs. L. donovani) was 1.06 ± 0.18 µM. For the same molecule, the MFC ([11]; strain H99) was 100 µg/mL, the MIC80 ([11]; strain H99) was 100 µg/mL and the MIC ([11]; strain H99, read-out: Cryptococcus neoformans (H99) MIC100) was 100 µg/mL.
